ChEMBL document CHEMBL1139190, “Pyrazolo[1,5-a]pyridine antiherpetics: effects of the C3 substituent on antiviral activity” (Bioorg Med Chem Lett, 2007)

Columns and labels:
Human alphaherpesvirus 1 = assay: Antiviral activity against HSV1 in Vero SC16 cells by capture hybrid method; format: functional, organism-based; details: Human alphaherpesvirus 1, Vero
[1] = Cytotoxicity against Vero SC16 cells; format: cell-based; details: chlorocebus sabaeus
[2] = Therapeutic index, ratio of CC50 for Vero SC16 cells to EC50 for HSV1; format: cell-based; details: monkey, read-out: Ratio CC50/EC50

SMILES	EC50 (Human alphaherpesvirus 1)	CC50 [1]	selectivity ratio [2]
Fc1ccc(-c2nn3c(NC4CCCC4)cccc3c2-c2cc[nH]n2)cc1	2.5 µM	14 µM	6
Fc1ccc(-c2nn3c(NC4CCCC4)cccc3c2-c2cccnc2NC2CCCC2)cc1	> 40 µM		
Fc1ccc(-c2nn3c(NC4CCCC4)cccc3c2-c2ccc(NC3CCCC3)nc2)cc1	> 40 µM		
Fc1ccc(-c2nn3c(NC4CCCC4)cccc3c2-c2ccno2)cc1	> 10 µM		
Fc1ccc(-c2nn3c(NC4CCCC4)cccc3c2-c2cn[nH]c2)cc1	4.7 µM	10 µM	2
Fc1ccc(-c2nn3c(NC4CCCC4)cccc3c2-c2ccoc2)cc1	> 10 µM		
Fc1ccc(-c2nn3c(NC4CCCC4)cccc3c2-c2ccco2)cc1	> 10 µM		
Fc1ccc(-c2nn3c(NC4CCCC4)cccc3c2-c2ccc(F)nc2)cc1	> 40 µM		
Fc1ccc(-c2nn3c(NC4CCCC4)cccc3c2-c2c[nH]c(NC3CCCC3)n2)cc1	7.9 µM	40 µM	5
Fc1ccc(-c2nn3c(NC4CCCC4)cccc3c2-c2ccnc(NC3CCCC3)c2)cc1	0.37 µM	> 40 µM	> 108
Fc1ccc(-c2nn3c(NC4CCCC4)cccc3c2-c2ccsc2)cc1	> 10 µM		
Nc1nc(-c2c(-c3ccc(F)cc3)nn3c(NC4CCCC4)cccc23)cs1	8.6 µM		
Nc1n[nH]cc1-c1c(-c2ccc(F)cc2)nn2c(NC3CCCC3)cccc12	4.9 µM	20 µM	4
Fc1ccc(-c2nn3c(NC4CCCC4)cccc3c2-c2ccnc(NC3CCCC3)n2)cc1	0.26 µM	> 160 µM	> 615
NNc1cc(-c2c(-c3ccc(F)cc3)nn3c(NC4CCCC4)cccc23)ccn1	5.7 µM	40 µM	7
Nc1nc(-c2c(-c3ccc(F)cc3)nn3c(NC4CCCC4)cccc23)c[nH]1	> 10 µM		
[N-]=[N+]=Nc1cc(-c2c(-c3ccc(F)cc3)nn3c(NC4CCCC4)cccc23)ccn1	> 40 µM		
Fc1ccc(-c2nn3c(NC4CCCC4)cccc3c2-c2ccc3[nH]ccc3c2)cc1	3.9 µM	20 µM	5
Fc1ccc(-c2nn3c(NC4CCCC4)cccc3c2-c2cc(NC3CCCC3)ncn2)cc1	0.85 µM	> 40 µM	> 46
Fc1ccc(-c2nn3c(NC4CCCC4)cccc3c2-c2ccnc(F)c2)cc1	> 40 µM		
Fc1ccc(-c2nn3c(NC4CCCC4)cccc3c2-c2ccnnc2)cc1	> 10 µM		
Nc1cccc(-c2c(-c3ccc(F)cc3)nn3c(NC4CCCC4)cccc23)c1	> 10 µM		
Fc1ccc(-c2nn3c(NC4CCCC4)cccc3c2-c2cccnc2)cc1	3.4 µM	> 40 µM	> 11
Cc1nc(-c2c(-c3ccc(F)cc3)nn3c(NC4CCCC4)cccc23)co1	> 40 µM		
Nc1nccc(-c2c(-c3ccc(F)cc3)nn3c(NC4CCCC4)cccc23)n1	4.1 µM	46 µM	11
